The source of these data is ChEMBL document CHEMBL3997830, “Design, synthesis and biological evaluation of nonsecosteroidal vitamin D3 receptor ligands as anti-tumor agents” (Bioorg Med Chem Lett, 2017).

The subject of one test is MCF7. Put plainly: Antiproliferative activity against human MCF7 cells after 72 hrs by MTT assay. It is filed as functional, cell-based. The settings on record: MCF7, 72 h.
Another test has as its system PC-3. Put plainly: Antiproliferative activity against human PC3 cells after 72 hrs by MTT assay. Type of test: functional, cell-based. The conditions noted are these: PC-3, 72 h.
Test [1] deals with T1, Vitamin D3 receptor (Homo sapiens) (UniProt P11473).
T1 sequence (whole entry): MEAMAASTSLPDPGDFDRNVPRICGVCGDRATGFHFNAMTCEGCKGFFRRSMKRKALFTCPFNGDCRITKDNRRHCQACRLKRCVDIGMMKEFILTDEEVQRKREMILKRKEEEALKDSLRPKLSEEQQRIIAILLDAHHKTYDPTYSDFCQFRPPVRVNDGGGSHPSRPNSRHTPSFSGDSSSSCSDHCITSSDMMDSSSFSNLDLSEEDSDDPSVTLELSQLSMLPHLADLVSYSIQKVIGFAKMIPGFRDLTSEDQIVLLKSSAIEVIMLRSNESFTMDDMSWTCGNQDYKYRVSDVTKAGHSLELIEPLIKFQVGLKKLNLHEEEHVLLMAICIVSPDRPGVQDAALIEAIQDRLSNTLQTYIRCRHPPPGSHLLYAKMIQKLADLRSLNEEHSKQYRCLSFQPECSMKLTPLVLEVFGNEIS
As to the kind of experiment: Inhibition of Fluormone VDR Red binding to human VDR LBD expressed in insect cells assessed as binding ability at 1 uM by fluorescence polarization assay relative to 1,25(OH)2D3. Also on record: scale not given: the % may be the effect or the level left.

A further test has as its system L02. As to the kind of experiment: Antiproliferative activity against human L02 cells after 72 hrs by MTT assay. It is filed as cell-based. The conditions noted are these: L02, 72 h.
Test [2] in a line: Selectivity index, ratio of IC50 for human L02 cells to IC50 for human MCF7 cells. It is filed as functional.
Test [3] in a line: Selectivity index, ratio of IC50 for human L02 cells to IC50 for human PC3 cells. It is filed as functional.
The next test deals with T2, Vitamin D3 receptor (Homo sapiens, UniProt P11473).
T2 sequence (P11473 whole entry): T1 sequence (whole entry)
As to the kind of experiment: Inhibition of Fluormone VDR Red binding to human VDR LBD expressed in insect cells assessed as binding ability by fluorescence polarization assay.

Turning to `C#CCCOC(=O)c1ccc(C(CC)(CC)c2ccc(C#CC(O)(CC)CC)c(C)c2)n1CC`, the 50% inhibitory concentration (IC50) in the test with MCF7 and in the test on PC-3 was greater than 50 µM each time.
`CCn1cc(C(CC)(CC)c2ccc(C#CC(O)(CC)CC)c(C)c2)cc1C(=O)NCCCN(C)C`: the Activity in test [1] is 31.6%. Further, the figures for the IC50 with MCF7 and in the test with PC-3 were 20.2 µM and 15.1 µM, respectively.
The like results for `CCn1cc(C(CC)(CC)c2ccc(C#CC(O)(CC)CC)c(C)c2)cc1C(=O)NCC(=O)O` were, in that order, 14.6%, 17.5 µM and 6.3 µM.
For `CCn1cc(C(CC)(CC)c2ccc(C#CC(O)(CC)CC)c(C)c2)cc1C(=O)N[C@@H](C)CO`, in test [1], the Activity came out at 19.8%. For the same molecule, the IC50 with MCF7 came to 1.91 µM; in the test on PC-3 it was 6.05 µM; in the test with L02, 35.4 µM. The “Ratio IC50” value is given as 18.5 in test [2] and 5.9 in test [3].
On to `CCCCC(=O)c1ccc(C(CC)(CC)c2ccc(C#CC(O)(CC)CC)c(C)c2)n1CC`, for which the IC50 in the test with MCF7 and with PC-3 was greater than 50 µM in each case.
For `CCn1c(C(=O)NCCC(=O)O)ccc1C(CC)(CC)c1ccc(C#CC(O)(CC)CC)c(C)c1`, the Activity in test [1] amounted to 13.6%. In addition, the IC50 in the test with MCF7 is greater than 50 µM; in the test with PC-3, 5.13 µM.
For the molecule `CCn1cc(C(CC)(CC)c2ccc(C#CC(O)(CC)CC)c(C)c2)cc1C(=O)NCC(=O)OC`, the IC50 in the test with MCF7 was found to be 26.5 µM; in the test with PC-3, 17.4 µM.
For the molecule `CCn1cc(C(CC)(CC)c2ccc(C#CC(O)(CC)CC)c(C)c2)cc1C(=O)N[C@H](C(=O)O)C(C)C`, the Activity in test [1] came to 20%. In addition, the results for the IC50 with MCF7 and in the test on PC-3 were 12.6 µM and 3.75 µM, respectively.
In the case of `CCN(CC)CCNC(=O)c1ccc(C(CC)(CC)c2ccc(C#CC(O)(CC)CC)c(C)c2)n1CC`, the IC50 on Vitamin D3 receptor is 0.0732 µM; in the test with MCF7, 3.77 µM; in the test on PC-3 it was 5.85 µM; with L02, 20.5 µM. Also, in test [1], the Activity came out at 62.2%. In addition, the entries for the “Ratio IC50” value in test [2] and in test [3] were 5.4 and 3.5, respectively.
As to `CCn1cc(C(CC)(CC)c2ccc(C#CC(O)(CC)CC)c(C)c2)cc1C(=O)OCCO`, the Activity in test [1] was found to be 29.7%. Moreover, the IC50 with MCF7 was 1.88 µM; in the test with PC-3, 11.4 µM.
On to `CCn1c(C(=O)On2nnc3ccccc32)ccc1C(CC)(CC)c1ccc(C#CC(O)(CC)CC)c(C)c1`, for which the IC50 with MCF7 and in the test with PC-3 was greater than 50 µM each time.
For the molecule `CCCCC(=O)c1cc(C(CC)(CC)c2ccc(C#CC(O)(CC)CC)c(C)c2)cn1CC`, the IC50 in the test with MCF7 is greater than 50 µM; in the test with PC-3 it was 48.1 µM.
`CCn1c(C(=O)N[C@H](C(=O)O)C(C)C)ccc1C(CC)(CC)c1ccc(C#CC(O)(CC)CC)c(C)c1`: the Activity in test [1] is 5.9%. Further, the IC50 stood at 13 µM with MCF7 and 5 µM in the test with PC-3.
The matching figures for `CCn1cc(C(CC)(CC)c2ccc(C#CC(O)(CC)CC)c(C)c2)cc1C(=O)NCCC(=O)O`: 4.3%, 30.6 µM and greater than 50 µM.
The like results for `CCn1cc(C(CC)(CC)c2ccc(C#CC(O)(CC)CC)c(C)c2)cc1C(=O)N[C@@H](C(=O)O)C(C)C` were, in that order, 5.9%, 18 µM and 10.3 µM.
Consider `CCn1cc(C(CC)(CC)c2ccc(C#CC(O)(CC)CC)c(C)c2)cc1C(=O)NCCN(C)C`, for which the IC50 on Vitamin D3 receptor stood at 0.0513 µM; in the test with MCF7, 13.4 µM; in the test with PC-3, 10.1 µM. The Activity in test [1] stood at 55.3%.
In the case of `CCn1c(C(=O)NCCCO)ccc1C(CC)(CC)c1ccc(C#CC(O)(CC)CC)c(C)c1`, the IC50 is 0.123 µM on Vitamin D3 receptor, 5.95 µM in the test with MCF7 and greater than 50 µM in the test on PC-3. The Activity in test [1] was determined as 59.7%.
For `CCN(CC)CCNC(=O)c1cc(C(CC)(CC)c2ccc(C#CC(O)(CC)CC)c(C)c2)cn1CC`, the IC50 on Vitamin D3 receptor amounted to 0.0565 µM; in the test on MCF7 it was 1.8 µM; with PC-3 it was 5.35 µM; with L02, 42.1 µM. Further, the Activity in test [1] was 50.3%. The “Ratio IC50” value in test [2] worked out at 23.4; in test [3], 7.9.
Turning to `CCn1c(C(=O)NCCC(=O)OC)ccc1C(CC)(CC)c1ccc(C#CC(O)(CC)CC)c(C)c1`, the IC50 was greater than 50 µM in the test on MCF7 and 36.3 µM in the test on PC-3.
On to `CCN(CC)CCCNC(=O)c1ccc(C(CC)(CC)c2ccc(C#CC(O)(CC)CC)c(C)c2)n1CC`, for which the Activity in test [1] was 18.8%. Also, the results for the IC50 in the test on MCF7 and in the test on PC-3 were 17.8 µM and 8.5 µM, respectively.
The like results for `CCn1c(C(=O)NCc2ccc(OC)cc2)ccc1C(CC)(CC)c1ccc(C#CC(O)(CC)CC)c(C)c1` were, in that order, 4%, greater than 50 µM and greater than 50 µM.
As to `CCn1c(C(=O)NCC(=O)O)ccc1C(CC)(CC)c1ccc(C#CC(O)(CC)CC)c(C)c1`, the IC50 on Vitamin D3 receptor worked out at 0.0857 µM; in the test on MCF7, 5.14 µM; in the test with PC-3 it was 2.25 µM. Further, the Activity in test [1] turned out to be 55.4%.
With `CCN(CC)CCNC(=O)c1ccc(C(CC)(CC)c2ccc(OCC(O)C(C)(C)C)c(C)c2)n1CC` (stereo unspecified), the IC50 on Vitamin D3 receptor came to 0.0768 µM; in the test with MCF7 it was 1.37 µM; with PC-3, 2.8 µM; in the test with L02, 21.2 µM. For the same molecule, the Activity in test [1] stood at 25.5%. The entries for the “Ratio IC50” value in test [2] and in test [3] were 15.5 and 7.6, respectively.
